Key:
[1] = system: β-D-galactosidase; assay: Glycosidase assay, p-nitrophenyl substrate; assay type: biochemical; conditions: Bovine liver enzyme; screened at 0.14 mg mL−1 (footnote: 0.4 mM)
Description: (§1) Glycosidase assays were conducted as described by Watson et al. (Phytochemistry 1997, 46, 255) using p-nitrophenyl-substrates (except sialidase which used methylumbeliferyl-N-acetyineuraminic acid as substrate). Assays were carried out in microtitre plates. Enzymes were assayed in 0.1 M citric acid/0.2 M di-sodium hydrogen phosphate (McIlvaine) buffers at the optimum pH for the enzyme. All assays were carried out at 20° C. All enzymes and substrates were purchased from Sigma Aldrich Chemicals Limited. The incubation mixture consisted of 10 μl of enzyme solution, 10 μl of the iminosugars solution and 50 μl of the appropriate 5 mM p-nitrophenyl substrate made up in McIlvaine buffer at the optimum pH for the enzyme. The reactions were stopped with 0.4 M glycine (pH 10.4) during the exponential phase of the reaction. Absorbances were read at 405 nm. Water was substituted for the alkaloids in the blanks. Reactions were carried out in triplicate.
(§2) Enzyme inhibitor solutions—Compounds were dissolved in distilled water at a concentration of 1 mg mL^−1 and then screened at a concentration of 0.14 mg mL^−1 after dilution of the 1 mg mL^−1 in the assay volumes of substrates.

[2] = system: α-D-glucosidase; assay: Glycosidase assay, p-nitrophenyl substrate; assay type: biochemical; conditions: Bacillus sterothermphilus enzyme; screened at 0.14 mg mL−1 (footnote: 0.4 mM)
Description: as §1, §2

[3] = system: β-D-mannosidase; assay: Glycosidase assay, p-nitrophenyl substrate; assay type: biochemical; conditions: Cellullomonas fimi enzyme; screened at 0.14 mg mL−1 (footnote: 0.4 mM)
Description: as §1, §2

[4] = system: Naringinase; assay: Glycosidase assay, p-nitrophenyl substrate; assay type: biochemical; conditions: Penicillium decumbens enzyme; screened at 0.14 mg mL−1 (footnote: 0.4 mM)
Description: as §1, §2

[5] = molecular target: T1, α-D-glucosidase (Saccharomyces cerevisiae, UniProt P53341); assay: Glycosidase assay, p-nitrophenyl substrate; assay type: biochemical; conditions: Saccharomyces cerevisiae enzyme; screened at 0.14 mg mL−1 (footnote: 0.4 mM); 20° C
T1 construct: purchased Sigma Aldrich Chemicals Limited
Description: as §1, §2

[6] = system: β-D-glucosidase; assay: Glycosidase assay, p-nitrophenyl substrate; assay type: biochemical; conditions: Almond enzyme; screened at 0.14 mg mL−1 (footnote: 0.4 mM)
Description: as §1, §2

[7] = molecular target: T2, Amyloglucosidase (Aspergillus niger, UniProt P69328); assay: Glycosidase assay, p-nitrophenyl substrate; assay type: biochemical; conditions: Aspergillus niger enzyme; screened at 0.14 mg mL−1 (footnote: 0.4 mM)
T2 construct: purchased Sigma Aldrich Chemicals Limited
Description: as §1, §2

[8] = molecular target: T3, α-D-mannosidase (Canavalia ensiformis, UniProt C0HJB3); assay: Glycosidase assay, p-nitrophenyl substrate; assay type: biochemical; conditions: Jack bean enzyme; screened at 0.14 mg mL−1 (footnote: 0.4 mM)
T3 construct: purchased Sigma Aldrich Chemicals Limited
T3 sequence (C0HJB3 1-981): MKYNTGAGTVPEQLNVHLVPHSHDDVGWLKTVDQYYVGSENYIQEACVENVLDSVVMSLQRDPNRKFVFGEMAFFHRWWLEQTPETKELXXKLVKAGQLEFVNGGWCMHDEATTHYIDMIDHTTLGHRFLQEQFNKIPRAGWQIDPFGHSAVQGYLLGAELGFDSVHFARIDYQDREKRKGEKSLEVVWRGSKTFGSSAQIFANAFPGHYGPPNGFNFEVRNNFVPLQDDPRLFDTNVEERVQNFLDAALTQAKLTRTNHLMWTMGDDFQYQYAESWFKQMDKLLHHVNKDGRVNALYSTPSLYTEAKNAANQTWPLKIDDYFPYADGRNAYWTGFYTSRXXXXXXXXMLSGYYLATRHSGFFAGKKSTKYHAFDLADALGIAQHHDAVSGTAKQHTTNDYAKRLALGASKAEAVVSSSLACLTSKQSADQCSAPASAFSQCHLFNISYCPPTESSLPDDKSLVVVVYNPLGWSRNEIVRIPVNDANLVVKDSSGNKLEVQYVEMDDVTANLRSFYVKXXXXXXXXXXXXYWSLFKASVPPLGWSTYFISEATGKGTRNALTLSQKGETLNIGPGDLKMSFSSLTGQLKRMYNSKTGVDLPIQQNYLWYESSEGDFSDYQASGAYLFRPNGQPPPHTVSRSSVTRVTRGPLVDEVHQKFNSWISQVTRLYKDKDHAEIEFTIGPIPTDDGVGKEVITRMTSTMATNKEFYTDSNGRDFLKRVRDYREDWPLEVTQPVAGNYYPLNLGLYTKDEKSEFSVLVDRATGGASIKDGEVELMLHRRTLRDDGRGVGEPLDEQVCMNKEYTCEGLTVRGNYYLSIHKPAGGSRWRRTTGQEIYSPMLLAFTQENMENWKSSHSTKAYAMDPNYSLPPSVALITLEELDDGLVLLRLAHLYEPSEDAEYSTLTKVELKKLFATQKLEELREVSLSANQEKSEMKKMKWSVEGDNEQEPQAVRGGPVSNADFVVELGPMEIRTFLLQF
Description: as §1, §2

[9] = molecular target: T4, α-D-glucosidase (Oryza sativa subsp. japonica, UniProt Q653V7); assay: Glycosidase assay, p-nitrophenyl substrate; assay type: biochemical; conditions: Rice enzyme; screened at 0.14 mg mL−1 (footnote: 0.4 mM)
T4 construct: purchased Sigma Aldrich Chemicals Limited
Description: as §1, §2

[10] = system: N-acetyl-β-D-glucosaminidase; assay: Glycosidase assay, p-nitrophenyl substrate; assay type: biochemical; conditions: screened at 0.14 mg mL−1 (footnote: 0.4 mM)
Description: as §1, §2

[11] = molecular target: T5, α-L-fucosidase (Bos taurus, UniProt Q2KIM0); assay: Glycosidase assay, p-nitrophenyl substrate; assay type: biochemical; conditions: Bovine kidney enzyme; screened at 0.14 mg mL−1 (footnote: 0.4 mM)
T5 construct: purchased Sigma Aldrich Chemicals Limited
T5 sequence (Q2KIM0 23-468): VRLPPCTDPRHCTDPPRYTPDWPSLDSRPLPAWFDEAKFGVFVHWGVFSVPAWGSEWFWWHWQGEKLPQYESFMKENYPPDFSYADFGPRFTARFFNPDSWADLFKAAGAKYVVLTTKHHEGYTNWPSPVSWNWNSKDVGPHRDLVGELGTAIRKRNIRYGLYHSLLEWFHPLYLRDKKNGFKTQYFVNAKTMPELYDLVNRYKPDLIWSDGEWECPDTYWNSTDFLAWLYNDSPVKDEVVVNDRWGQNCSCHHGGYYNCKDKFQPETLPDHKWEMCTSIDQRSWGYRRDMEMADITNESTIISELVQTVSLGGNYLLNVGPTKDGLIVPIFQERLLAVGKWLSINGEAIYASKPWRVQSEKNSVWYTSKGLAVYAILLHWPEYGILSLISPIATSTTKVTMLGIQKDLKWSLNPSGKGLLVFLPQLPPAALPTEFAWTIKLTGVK
Description: as §1, §2

[12] = molecular target: T6, N-acetyl-β-D-hexosaminidase (Aspergillus oryzae, UniProt Q8J2T0); assay: Glycosidase assay, p-nitrophenyl substrate; assay type: biochemical; conditions: Aspergillus oryzae enzyme; screened at 0.14 mg mL−1 (footnote: 0.4 mM)
T6 construct: purchased Sigma Aldrich Chemicals Limited
Description: as §1, §2

[13] = molecular target: T7, α-D-galactosidase (Coffea arabica, UniProt Q42656); assay: Glycosidase assay, p-nitrophenyl substrate; assay type: biochemical; conditions: Green coffee bean enzyme; screened at 0.14 mg mL−1 (footnote: 0.4 mM)
T7 construct: purchased Sigma Aldrich Chemicals Limited
Description: as §1, §2

[14] = system: sialidase (NanH from T. forsythia); assay: Sialidase assay with MUNANA substrate; assay type: biochemical, Tannerella forsythia; conditions: 1 mM inhibitor, 2.5 nM sialidase, 0.1 mM MUNANA, pH 7.2
Description: Sialidase assays used 1 mM inhibitor (or water without inhibitor) and 2.5 nM sialidase (including NanH from T. forsythia) incubated in the presence of 0.1 mM methylumbeliferyl-N-acetylneuraminic acid, pH 7.2 in 20 mM sodium phosphate buffer. Reactions were stopped at 30 seconds and 60 seconds via addition of ph 10.5 60 mM sodium carbonate buffer. Release of fluorogenic MU was quantified by measuring fluorescence emission at 450 nm, excitation 350 nm. Percentage sialidase activity was expressed as the change in fluorescence between 30 seconds and 60 seconds compared to that of a reaction without inhibitor. Reactions were carried out in triplicate.
(§3) MU release can be used to quantify sialidase activity.
1 mM inhibitor (or water without inhibitor) and 2.5 nM sialidase (including NanH from T. forsythia) was incubated in the presence of 0.1 mM MUNANA, pH 7.2 20 mM Sodium Phosphate buffer. Reactions were stopped at 30 seconds and 60 seconds via addition of ph 10.5 60 mM sodium carbonate buffer. Release of fluorogenic MU was quantified by measuring fluorescence emission at 450 nm, excitation 350 nm. Percentage sialidase activity was expressed as the change in fluorescence between 30 seconds and 60 seconds compared to that of a reaction without inhibitor. Reactions were carried out in triplicate.

[15] = system: glucosidases; assay: Glycosidase panel, glucosidases overall; assay type: biochemical; conditions: panel of glucosidases
Description: Glycosidase assays were conducted on Compounds 1 and 3 and an extract of Zizyphus used in the disaccharide loading mouse studies to determine if glucosidase inhibition might explain the effects on blood glucose. A panel of glycosidases were used to be sure any activity found was a selective inhibition and not just non-specific binding to the enzyme.
as §1, with “triplicate. […]” for “triplicate.”

[16] = system: sialidase of T. forsythia homogenate; assay: Sialidase activity of homogenate of T. forsythia; assay type: biochemical, Tannerella forsythia; conditions: 2 mM Zanamivir; 1500 μg/ml Zizyphus
Description: as §3
(§4) Whole bacteria or purified sialidases were exposed to MUNANA, in the presence or absence of compound 1 (Example 3) or Zizyphus fruit 50% aqueous ethanol extract containing 1% of the N-methyl-prolines.
(§5) […] Reactions were stopped at 30 seconds and 60 seconds via addition of ph 10.5 60 mM sodium carbonate buffer. Release of fluorogenic MU was quantified by measuring fluorescence emission at 450 nm, excitation 350 nm. Percentage sialidase activity was expressed as the change in fluorescence between 30 seconds and 60 seconds compared to that of a reaction without inhibitor. Reactions were carried out in triplicate.

[17] = system: sialidase of P. gingivalis homogenate; assay: Sialidase activity of homogenate of P. gingivalis; assay type: biochemical, Porphyromonas gingivalis; conditions: 2 mM Zanamivir; 1500 μg/ml Zizyphus
Description: as §3, §4, §5

[18] = system: N1Neu; assay: N1Neu sialidase inhibition screen; assay type: biochemical; conditions: 2 mM Zanamivir; 1500 ug Zizyphus extract; 10 minute time point
Description: An initial screen of N1Neu inhibition using a variety of compounds and the commercially available sialidase (neuraminidase) inhibitor Zanamivir (which is sold in the pharmaceutical preparation “Relenza™” as a treatment for flu) was performed.
Sialidase assays were performed, reactions contained 0.1 mM MUNANA, pH 7.4 50 mM Tris, 5 mM CaCl2), 200 mM NaCl, plant extract or the control sialidase inhibitor Zanamivir at the concentrations indicated, or no putative inhibitor. N1Neu was present at 0.025 μg/ml in reactions. 50 μl of these reactions were quenched using 100 μl of 100 mM sodium carbonate buffer, pH 10.5, at 5 minutes and 10 minutes. The 10 minute time point was used to assess sialidase activity. Data shown represent the mean of one experiment, where each condition was repeated in triplicate. MU present in quenched reactions was quantified using TECAN M200 Infinite microplate reader at excitation 340 nm emission 430 nm, and expressed as the percentage of sialidase activity (MU fluorescence) relative to the no inhibitor condition.

T2 sequence (P69328 25-640): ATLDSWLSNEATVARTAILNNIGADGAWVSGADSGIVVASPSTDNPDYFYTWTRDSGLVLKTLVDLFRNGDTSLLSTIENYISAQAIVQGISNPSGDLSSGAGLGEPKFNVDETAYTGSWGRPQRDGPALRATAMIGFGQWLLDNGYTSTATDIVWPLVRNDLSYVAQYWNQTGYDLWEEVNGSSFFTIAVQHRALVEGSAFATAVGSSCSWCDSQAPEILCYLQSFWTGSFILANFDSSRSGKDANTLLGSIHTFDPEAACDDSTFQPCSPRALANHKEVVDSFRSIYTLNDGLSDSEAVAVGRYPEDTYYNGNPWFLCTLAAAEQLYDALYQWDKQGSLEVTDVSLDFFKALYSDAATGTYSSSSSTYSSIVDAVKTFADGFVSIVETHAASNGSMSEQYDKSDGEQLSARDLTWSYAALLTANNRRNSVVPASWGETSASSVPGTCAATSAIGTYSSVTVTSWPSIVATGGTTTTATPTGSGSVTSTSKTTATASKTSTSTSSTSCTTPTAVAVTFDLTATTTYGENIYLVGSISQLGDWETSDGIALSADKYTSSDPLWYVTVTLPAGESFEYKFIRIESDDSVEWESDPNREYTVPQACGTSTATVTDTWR
T7 sequence (Q42656 16-378): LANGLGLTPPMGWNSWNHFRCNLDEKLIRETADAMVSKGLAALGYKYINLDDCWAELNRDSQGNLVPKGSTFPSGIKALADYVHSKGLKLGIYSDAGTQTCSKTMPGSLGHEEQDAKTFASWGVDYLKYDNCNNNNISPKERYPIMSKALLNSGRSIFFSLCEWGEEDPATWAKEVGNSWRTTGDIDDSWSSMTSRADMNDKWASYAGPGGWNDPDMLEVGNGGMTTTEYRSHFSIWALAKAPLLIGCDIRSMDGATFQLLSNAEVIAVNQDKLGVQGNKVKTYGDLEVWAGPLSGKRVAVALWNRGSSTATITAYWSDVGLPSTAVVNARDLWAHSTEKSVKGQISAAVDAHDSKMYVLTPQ
T4 sequence (Q653V7 34-885): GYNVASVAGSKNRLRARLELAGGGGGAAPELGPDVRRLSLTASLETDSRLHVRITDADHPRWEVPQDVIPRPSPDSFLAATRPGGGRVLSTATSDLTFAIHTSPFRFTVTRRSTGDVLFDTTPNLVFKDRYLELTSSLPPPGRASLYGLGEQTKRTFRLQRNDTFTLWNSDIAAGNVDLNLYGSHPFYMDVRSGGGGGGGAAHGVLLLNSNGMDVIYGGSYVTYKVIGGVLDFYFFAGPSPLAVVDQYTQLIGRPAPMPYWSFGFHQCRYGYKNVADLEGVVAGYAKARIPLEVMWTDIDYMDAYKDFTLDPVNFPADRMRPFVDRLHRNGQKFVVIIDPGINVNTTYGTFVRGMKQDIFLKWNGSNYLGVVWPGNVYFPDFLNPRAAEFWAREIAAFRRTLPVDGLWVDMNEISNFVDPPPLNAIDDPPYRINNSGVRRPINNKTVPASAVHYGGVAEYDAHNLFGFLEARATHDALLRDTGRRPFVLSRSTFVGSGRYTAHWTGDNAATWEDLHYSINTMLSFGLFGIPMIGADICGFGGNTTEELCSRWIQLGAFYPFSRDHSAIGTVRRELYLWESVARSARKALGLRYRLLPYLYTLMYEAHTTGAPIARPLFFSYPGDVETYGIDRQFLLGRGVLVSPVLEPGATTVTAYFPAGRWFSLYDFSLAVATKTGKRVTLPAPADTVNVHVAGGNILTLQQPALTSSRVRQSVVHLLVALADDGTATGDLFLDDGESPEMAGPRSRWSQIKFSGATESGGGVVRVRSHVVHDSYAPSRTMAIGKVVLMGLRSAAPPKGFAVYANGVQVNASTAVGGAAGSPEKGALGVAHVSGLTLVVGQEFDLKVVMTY
T1 sequence (P53341 whole entry): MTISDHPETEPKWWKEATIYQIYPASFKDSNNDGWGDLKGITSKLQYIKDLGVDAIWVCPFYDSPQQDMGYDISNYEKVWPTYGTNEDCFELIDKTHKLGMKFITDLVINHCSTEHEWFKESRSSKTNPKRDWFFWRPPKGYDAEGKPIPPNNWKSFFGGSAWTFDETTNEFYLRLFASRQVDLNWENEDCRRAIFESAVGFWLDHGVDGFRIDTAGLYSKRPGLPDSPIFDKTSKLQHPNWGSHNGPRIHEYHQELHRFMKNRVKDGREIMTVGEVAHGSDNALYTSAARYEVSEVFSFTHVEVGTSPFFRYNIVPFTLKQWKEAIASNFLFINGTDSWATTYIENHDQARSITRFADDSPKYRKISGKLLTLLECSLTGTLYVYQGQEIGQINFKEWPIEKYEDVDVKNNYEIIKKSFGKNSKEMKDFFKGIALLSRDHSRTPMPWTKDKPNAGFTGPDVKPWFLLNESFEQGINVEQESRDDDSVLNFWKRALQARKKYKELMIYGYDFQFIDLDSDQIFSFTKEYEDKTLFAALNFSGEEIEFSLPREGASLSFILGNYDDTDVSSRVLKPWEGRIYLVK
T6 sequence (Q8J2T0 97-600): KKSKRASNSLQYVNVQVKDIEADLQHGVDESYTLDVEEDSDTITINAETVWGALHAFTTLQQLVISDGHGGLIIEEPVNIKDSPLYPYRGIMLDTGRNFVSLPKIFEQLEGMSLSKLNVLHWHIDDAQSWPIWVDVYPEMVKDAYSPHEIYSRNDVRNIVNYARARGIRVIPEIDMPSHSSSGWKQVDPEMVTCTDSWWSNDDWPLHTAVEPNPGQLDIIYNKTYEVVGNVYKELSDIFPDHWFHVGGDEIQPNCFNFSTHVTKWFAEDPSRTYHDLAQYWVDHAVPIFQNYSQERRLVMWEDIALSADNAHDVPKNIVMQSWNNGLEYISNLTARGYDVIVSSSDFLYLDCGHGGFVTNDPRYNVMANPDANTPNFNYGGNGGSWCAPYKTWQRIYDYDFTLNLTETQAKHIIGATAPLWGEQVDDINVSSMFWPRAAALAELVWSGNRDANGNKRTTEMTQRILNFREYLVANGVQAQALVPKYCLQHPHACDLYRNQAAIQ

Row | Compound | % inhibition [1] [%] | % inhibition [2] [%] | % inhibition [3] [%] | % inhibition [4] [%] | % inhibition [5] [%] | % inhibition [6] [%] | % inhibition [7] [%] | % inhibition [8] [%] | % inhibition [9] [%] | % inhibition ([10]; Bovine kidney enzyme) [%] | % inhibition ([10]; Jack bean enzyme) [%] | % inhibition [11] [%] | % inhibition [12] [%] | % inhibition [13] [%] | % inhibition [14] [%] | glucosidase inhibition (in words) [15] | % inhibition [16] [%] | % inhibition [17] [%] | % inhibition [18] [%]
1 | OC[C@H]1NC[C@H](O)[C@@H](O)[C@@H]1O [DNJ, 1-deoxynojirimycin] | 0.45 | 99.48 | −19.03 | 20.81 | 35.67 | 63.7 | 31.71 | 26.65 | 99.56 | −0.83 | 2.76 | 5.86 | −5.50 | −3.34 | 2 | expected strong inhibition of various glucosidases | – | – | –
2 | CC(=O)N[C@H]1[C@H]([C@H](O)[C@H](O)CO)OC(C(=O)O)=C[C@@H]1N=C(N)N [Zanamivir] | – | – | – | – | – | – | – | – | – | – | – | – | – | – | – | – | 22 | 51 | 100

— patent publication US20260078089A1, “BIOACTIVE PHYTOCHEMICALS IN ZIZYPHUS AND GUARANA” (Phytoquest Limited, priority 2018, published 2026)
